Data reported in patent US20240393292A1, “ALLERGY ANTIGEN AND EPITOPE THEREOF” (HOYU CO., LTD., priority 2019, published 2024).
Blank lines part the entries; values can stand above or below the substance they belong to.

Tested on: IgE antibodies from patients
Test: Wheat epitope mapping (2): overlapping 10-amino-acid peptide fragments shifted by one amino acid;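 as to Rank of partial sequence as epitope binding to IgE antibody: key = sequence deemed particularly important within the common 15-residue sequence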;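 as to epitope sequence binding to IgE antibody, rank (Key/Preferably/More preferably): key of grades: preferably = shorter partial sequence still acting as epitope; more preferably = sequence improving IgE binding; key = particularly important sequence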
Type: binding, human
Summary of the method: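 Cellulose-bound 10-mer peptides offset by one residue were probed with patient serum IgE and detected by chemiluminescence. Secondary-antibody-only signals were subtracted per peptide. Residual binding was expressed as % of the parent overlapping peptide, scored as none (<30%), poor (30–<50%), somewhat poor (50–<70%) or retained (≥70%).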

[1] = serum of patient G9 (adult, general immediate type allergy to wheat), sequence without X
[2] = serum of patient P50 (child, general immediate type allergy to wheat), sequence without X
[3] = serum of patient P34 (WDEIA), sequence without X
[4] = serum of patient P32 (WDEIA), partial sequence
[5] = serum of patient P36 (WDEIA), sequence without X
[6] = serum of patient P32 (WDEIA), sequence without X

Substance: 2315 (IIYS; REGION 1..4: note = epitope) [compound 2315]
Epitope sequence binding to IgE antibody, rank of the sequence (Key/Preferably/More preferably) (serum of patient P25 (WDEIA), sequence without X): Key

Substance: 1844 (TVRTLQ; REGION 1..6: note = epitope) [compound 1844]
epitope sequence binding to IgE antibody, rank (Key/Preferably/More preferably) (serum of patient P9 (WDEIA)): Key

Substance: 1890 (RTLQ; REGION 1..4: note = epitope) [compound 1890]
epitope sequence binding to IgE antibody, rank (Key/Preferably/More preferably) (serum of patient G6 (adult, general immediate type allergy to wheat)): Key

Substance: 1856 (YTVRTLQRT; REGION 1..9: note = epitope) [compound 1856]
epitope sequence binding to IgE antibody, rank (Key/Preferably/More preferably) (serum of patient P18 (WDEIA)): More preferably

Substance: 2245 (SRLLRGIR; REGION 1..8: note = epitope) [compound 2245]
Epitope sequence binding to IgE antibody, rank of the sequence (Key/Preferably/More preferably/Further preferably) [2]: Preferably

Substance: 1287 (ILPRS; REGION 1..5: note = epitope) [compound 1287]
Epitope sequence binding to IgE antibody, rank of the sequence [2]: Key

Substance: 1683 (YNPDKVPF; REGION 1..8: note = epitope) [compound 1683]
Rank of partial sequence as epitope binding to IgE antibody [1]: Key

Substance: 2586 (LQQSTYQL; REGION 1..8: note = epitope) [compound 2586]
Epitope sequence binding to IgE antibody, rank of the sequence [4]: Key

Substance: 1853 (TVRTLQR; REGION 1..7: note = epitope) [compound 1853]
epitope sequence binding to IgE antibody, rank (Key/Preferably/More preferably) (serum of patient P17 (WDEIA)): Preferably

Substance: 1941 (QQFPGQQQ; REGION 1..8: note = epitope) [compound 1941]
epitope sequence binding to IgE antibody, rank (Key/Preferably/More preferably) (serum of patient P21 (WDEIA)): More preferably

Substance: 1860 (TVRTLQ; REGION 1..6: note = epitope) [compound 1860]
epitope sequence binding to IgE antibody, rank (Key/Preferably/More preferably) (serum of patient P19 (WDEIA)): Key

Substance: 1218 (PIQQQP; REGION 1..6: note = epitope) [compound 1218]
Epitope sequence binding to IgE antibody, rank of the sequence (serum of patient P9 (WDEIA), sequence without X): Preferably

Substance: 1952 (QFPGQQ; REGION 1..6: note = epitope) [compound 1952]
epitope sequence binding to IgE antibody, rank (Key/Preferably/More preferably) (serum of patient P24 (WDEIA)): Key

Substance: 2411 (TEIVL; REGION 1..5: note = epitope) [compound 2411]
Epitope sequence binding to IgE antibody, rank of the sequence (Key/Preferably/More preferably) (serum of patient P52 (child, general immediate type allergy to wheat), sequence without X): Preferably

Substance: 1807 (PKFLKNG; REGION 1..7: note = epitope) [compound 1807]
epitope sequence binding to IgE antibody, rank (Key/Preferably/More preferably) (serum of patient P22 (WDEIA)): Key

Substance: 1557 (QVPLVQQQQF; REGION 1..10: note = epitope) [compound 1557]
Rank of partial sequence as epitope binding to IgE antibody [2]: More preferably

Substance: 1509 (QVPLVQQ; REGION 1..7: note = epitope) [compound 1509]
Rank of partial sequence as epitope binding to IgE antibody (serum of patient P3 (WDEIA), sequence without X): Preferably

Substance: 1850 (VRTLQ; REGION 1..5: note = epitope) [compound 1850]
epitope sequence binding to IgE antibody, rank (Key/Preferably/More preferably) (serum of patient P16 (WDEIA)): Key

Substance: 1239 (QQQPIQQQP; REGION 1..9: note = epitope) [compound 1239]
Epitope sequence binding to IgE antibody, rank of the sequence (serum of patient P24 (WDEIA), sequence without X): Preferably

Substance: 1523 (QVPLVQQQQF; REGION 1..10: note = epitope) [compound 1523]
Rank of partial sequence as epitope binding to IgE antibody (serum of patient P10 (WDEIA), sequence without X): Further preferably

Substance: 2516 (SSQVSF; REGION 1..6: note = epitope) [compound 2516]
Epitope sequence binding to IgE antibody, rank of the sequence (serum of patient P53 (child, general immediate type allergy to wheat), partial sequence): Key

Substance: 2556 (QLVQQLCC; REGION 1..8: note = epitope) [compound 2556]
Epitope sequence binding to IgE antibody, rank of the sequence (serum of patient P20 (WDEIA), partial sequence): Key

Substance: 1393 (QPLPPQQQ; REGION 1..8: note = epitope) [compound 1393]
Epitope sequence binding to IgE antibody, rank of the sequence (serum of patient P21 (WDEIA), sequence without X): Preferably

Substance: 2677 (YKGPTL; REGION 1..6: note = epitope) [compound 2677]
Epitope sequence binding to IgE antibody, rank of the sequence (serum of patient P12 (WDEIA), partial sequence): Key

Substance: 2406 (TEIVL; REGION 1..5: note = epitope) [compound 2406]
Epitope sequence binding to IgE antibody, rank of the sequence (Key/Preferably/More preferably/Further preferably) [2]: Preferably

Substance: 1641 (YNPDKVP; REGION 1..7: note = epitope) [compound 1641]
Rank of partial sequence as epitope binding to IgE antibody (serum of patient P35 (WDEIA), sequence without X): Preferably

Substance: 1477 (YLQPQQPISQ; REGION 1..10: note = epitope) [compound 1477]
Rank of partial sequence as epitope binding to IgE antibody [6]: Preferably

Substance: 2394 (HDIDRCAYV; REGION 1..9: note = epitope) [compound 2394]
Epitope sequence binding to IgE antibody, rank of the sequence (Key/Preferably/More preferably) [3]: Key

Substance: 2569 (QLVQQL; REGION 1..6: note = epitope) [compound 2569]
Epitope sequence binding to IgE antibody, rank of the sequence (serum of patient P27 (WDEIA), partial sequence): Preferably

Substance: 1842 (TVRTLQ; REGION 1..6: note = epitope) [compound 1842]
epitope sequence binding to IgE antibody, rank (Key/Preferably/More preferably) (serum of patient P8 (WDEIA)): Key

Substance: 2602 (QQSTYQLV; REGION 1..8: note = epitope) [compound 2602]
Epitope sequence binding to IgE antibody, rank of the sequence (serum of patient P54 (child, general immediate type allergy to wheat), partial sequence): Key

Substance: 1291 (LPRS; REGION 1..4: note = epitope) [compound 1291]
Epitope sequence binding to IgE antibody, rank of the sequence (serum of patient P53 (child, general immediate type allergy to wheat), sequence without X): Key

Substance: 2528 (SSQVSF; REGION 1..6: note = epitope) [compound 2528]
Epitope sequence binding to IgE antibody, rank of the sequence (serum of patient G2 (adult, general immediate type allergy to wheat), partial sequence): Key

Substance: 1648 (FVPISG; REGION 1..6: note = epitope) [compound 1648]
Rank of partial sequence as epitope binding to IgE antibody [5]: Key

Substance: 2461 (LKAWSG; REGION 1..6: note = epitope) [compound 2461]
Epitope sequence binding to IgE antibody, rank of the sequence (Key/Preferably/More preferably/Further preferably) [2]: More preferably

Substance: 1838 (RTLQ; REGION 1..4: note = epitope) [compound 1838]
epitope sequence binding to IgE antibody, rank (Key/Preferably/More preferably) (serum of patient P3 (WDEIA)): Key

Other lines, results leading:

Epitope sequence binding to IgE antibody, rank of the sequence (Key/Preferably/More preferably) [1]: Key
Substance: 2306 (GIDK; REGION 1..4: note = epitope) [compound 2306]

Rank of partial sequence as epitope binding to IgE antibody [3]: Key
Substance: 1639 (YNPDKV; REGION 1..6: note = epitope) [compound 1639]

epitope sequence binding to IgE antibody, rank (Key/Preferably/More preferably) (serum of patient P34 (WDEIA)): Preferably
Substance: 1882 (TVRTLQRT; REGION 1..8: note = epitope) [compound 1882]

Rank of partial sequence as epitope binding to IgE antibody (serum of patient P28 (WDEIA), sequence without X): Key
Substance: 1631 (DKVPFVPISG; REGION 1..10: note = epitope) [compound 1631]

Epitope sequence binding to IgE antibody, rank of the sequence [4]: Preferably
Substance: 2585 (LQQSTYQLVQ; REGION 1..10: note = epitope) [compound 2585]

Epitope sequence binding to IgE antibody, rank of the sequence (serum of patient P30 (WDEIA), partial sequence): Key
Substance: 2737 (KIGG; REGION 1..4: note = epitope) [compound 2737]

Rank of partial sequence as epitope binding to IgE antibody (serum of patient P18 (WDEIA), sequence without X): Key
Substance: 1442 (YLQPQQPIS; REGION 1..9: note = epitope) [compound 1442]

Rank of partial sequence as epitope binding to IgE antibody [5]: More preferably
Substance: 1645 (YNPDKVPFV; REGION 1..9: note = epitope) [compound 1645]

Epitope sequence binding to IgE antibody, rank of the sequence (serum of patient P20 (WDEIA), sequence without X): Preferably
Substance: 1324 (INVEN; REGION 1..5: note = epitope) [compound 1324]

epitope sequence binding to IgE antibody, rank (Key/Preferably/More preferably) (serum of patient G5 (adult, general immediate type allergy to wheat)): Preferably
Substance: 1887 (YTVRTLQRTV; REGION 1..10: note = epitope) [compound 1887]

Epitope sequence binding to IgE antibody, rank of the sequence (serum of patient P2 (WDEIA), partial sequence): Key
Substance: 2549 (QLVQQLCC; REGION 1..8: note = epitope) [compound 2549]

Epitope sequence binding to IgE antibody, rank of the sequence (serum of patient P22 (WDEIA), partial sequence): Key
Substance: 2560 (LQQSTYQLVQ; REGION 1..10: note = epitope) [compound 2560]

Rank of partial sequence as epitope binding to IgE antibody (serum of patient P15 (WDEIA), sequence without X): Preferably
Substance: 1430 (YLQPQQPIS; REGION 1..9: note = epitope) [compound 1430]

Rank of partial sequence as epitope binding to IgE antibody [6]: Key
Substance: 1478 (YLQPQQPIS; REGION 1..9: note = epitope) [compound 1478]

Epitope sequence binding to IgE antibody, rank of the sequence (serum of patient P29 (WDEIA), partial sequence): Key
Substance: 2734 (YKIGG; REGION 1..5: note = epitope) [compound 2734]

Epitope sequence binding to IgE antibody, rank of the sequence (serum of patient P10 (WDEIA), partial sequence): Preferably
Substance: 2637 (KEAAEM; REGION 1..6: note = epitope) [compound 2637]

Rank of partial sequence as epitope binding to IgE antibody (serum of patient G3 (adult, general immediate type allergy to wheat), sequence without X): Key
Substance: 1667 (NPDKVP; REGION 1..6: note = epitope) [compound 1667]

epitope sequence binding to IgE antibody, rank (Key/Preferably/More preferably) (serum of patient P12 (WDEIA)): Key
Substance: 1924 (FPGQQ; REGION 1..5: note = epitope) [compound 1924]

epitope sequence binding to IgE antibody, rank (Key/Preferably/More preferably) (serum of patient G1 (adult, general immediate type allergy to wheat)): Preferably
Substance: 1739 (KEAANFT; REGION 1..7: note = epitope) [compound 1739]

Rank of partial sequence as epitope binding to IgE antibody [3]: Preferably
Substance: 1551 (QQQQFLGQ; REGION 1..8: note = epitope) [compound 1551]

Epitope sequence binding to IgE antibody, rank of the sequence (serum of patient P17 (WDEIA), partial sequence): Preferably
Substance: 2712 (YKIGG; REGION 1..5: note = epitope) [compound 2712]
